Reference: patent publication US8404692B2, “Pyrimidin-4-yl-3, 4-dihydro-2H-pyrrolo [1,2A] pyrazin-1-one compounds” (Cyclacel Limited, priority 2005, dated 2013)
Blank lines part the entries; values can stand above or below the compound they belong to.

Legend:
A2780 = assay: MTT cytotoxicity assay A2780; assay type: cell-based; settings: Homo sapiens; A2780 cells, 96-h MTT
Experimental: (§1) The compounds of the invention were subjected to a standard cellular proliferation assay using cell lines […] and MiaPaCa (obtained from The European Collection of Cell Cultures). […] C.; Thomas, D. G.; Darling, J. L. Anti Cancer Drugs 1996, 7, 331-8; Loveland, B. E.; Johns, T. G.; Mackay, I. R.; Vaillant, F.; Wang, Z. X.; Hertzog, P. J. Biochemistry International 1992, 27, 501-10). In short: cells were seeded into 96-well plates according to doubling time and incubated overnight at 37° C. […] MTT was made up as a stock of 5 mg/mL in cell media and filter-sterilised. Media was removed from cells followed by a wash with 200 μL PBS. MTT solution was then added at 20 μL per well and incubated in the dark at 37° C. for 4 h. MTT solution was removed and cells again washed with 200 μL PBS. MT dye was solubilised with […] per well of DMSO with agitation. Absorbance was read at 540 nm and data analysed using curve-fitting software (GraphPad Prism version 3.00 for Windows, GraphPad Software, San Diego Calif. USA) to determine IC50 values (concentration of test compound which inhibits cell growth by 50%).

human CDK7/cyclin H = human CDK7/cyclin H (Homo sapiens, UniProt P50613); assay: CDK 7 and 9 assays: CDK7/H; assay type: biochemical; settings: in vitro kinase data
human CDK7/cyclin H, sequence (P50613 whole entry): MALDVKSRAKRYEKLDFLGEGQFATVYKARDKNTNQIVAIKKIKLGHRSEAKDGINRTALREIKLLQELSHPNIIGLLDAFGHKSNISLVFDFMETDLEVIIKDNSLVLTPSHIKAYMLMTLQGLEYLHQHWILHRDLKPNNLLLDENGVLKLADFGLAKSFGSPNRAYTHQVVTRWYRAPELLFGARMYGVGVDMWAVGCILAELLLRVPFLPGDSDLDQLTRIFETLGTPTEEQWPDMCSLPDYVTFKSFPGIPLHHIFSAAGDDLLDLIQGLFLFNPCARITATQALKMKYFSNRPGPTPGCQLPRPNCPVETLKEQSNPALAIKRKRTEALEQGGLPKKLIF
human CDK7/cyclin H, sequence (P51946 whole entry partner): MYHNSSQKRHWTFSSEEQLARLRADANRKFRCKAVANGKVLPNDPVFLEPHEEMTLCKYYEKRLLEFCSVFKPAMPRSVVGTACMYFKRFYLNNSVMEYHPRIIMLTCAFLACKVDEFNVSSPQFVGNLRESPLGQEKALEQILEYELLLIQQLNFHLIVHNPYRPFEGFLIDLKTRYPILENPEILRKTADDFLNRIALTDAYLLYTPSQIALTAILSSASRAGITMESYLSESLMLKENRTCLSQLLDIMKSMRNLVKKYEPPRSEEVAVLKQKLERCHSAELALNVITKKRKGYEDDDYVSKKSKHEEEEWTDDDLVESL
Experimental: (§2) The compounds of the invention above were investigated for their ability to inhibit the enzymatic activity of various protein kinases. This was achieved by measurement of incorporation of radioactive phosphate from ATP into appropriate polypeptide substrates. Recombinant protein kinases and kinase complexes were produced or obtained commercially. Assays were performed using 96-well plates and appropriate assay buffers (typically 25 mM β-glycerophosphate, 20 mM MOPS, 5 mM EGTA, 1 mM DTT, 1 mM […], pH 7.4), into which were added 2-4 μg of active enzyme with appropriate substrates. The reactions were initiated by addition of Mg/ATP mix (15 mM MgCl2+100 μM ATP with 30-50 kBq per well of [γ-^32P]-ATP) and mixtures incubated as required at 30° C. Reactions were stopped on ice, followed by filtration through p81 filterplates or GF/C filterplates (Whatman Polyfiltronics, Kent, UK). After washing 3 times with 75 mM aq orthophosphoric acid, plates were dried, scintillant added and incorporated radioactivity measured in a scintillation counter (TopCount, Packard Instruments, Pangbourne, Berks, UK). Compounds for kinase assay were made up as 10 mM stocks in DMSO and diluted into 10% DMSO in assay buffer. Data was analysed using curve-fitting software (GraphPad Prism version 3.00 for Windows, GraphPad Software, San Diego Calif. USA) to determine IC50 values (concentration of test compound which inhibits kinase activity by 50%).
CTD peptide substrate (biotinyl-Ahx-(Tyr-Ser-Pro-Thr-Ser-Pro-Ser)4-NH2; 1-2 mg/mL) and recombinant human CDK7/cyclin H, CDK9/cyclin T1, or CDK9/cyclin K (0.5-2 μg) were incubated for 45 min at 30° C. in the presence of varying amounts of test compound in 20 mM MOPS pH 7.2, 25 mM β-glycerophosphate, 5 mM EGTA, 1 mM DTT, 1 mM sodium vanadate, 15 mM MgCl2, and 100 μM ATP (containing a trace amount of ^32PγATP) in a total volume of 25 μL in a 96-well microtiter plate. […] Microscint 40 scintillation liquid (50 μL) was added to each well, and the amount of ^32P incorporation for each sample was measured using a Packard Topcount microplate scintillation counter.

MiaPaCa = assay: MTT cytotoxicity assay MiaPaCa; assay type: cell-based; settings: Homo sapiens, MIA PaCa-2; MiaPaCa cells, 96-h MTT
Experimental: as §1

aurora-A (human) = molecular target: T1, aurora-A (human) (Homo sapiens, UniProt O14965); assay: Aurora-A (human) kinase assay; assay type: biochemical; settings: read-out: Activity (Aurora A activity, IC50 grading)
T1 construct: purchased Upstate, Dundee, UK
T1 sequence (O14965 1-403): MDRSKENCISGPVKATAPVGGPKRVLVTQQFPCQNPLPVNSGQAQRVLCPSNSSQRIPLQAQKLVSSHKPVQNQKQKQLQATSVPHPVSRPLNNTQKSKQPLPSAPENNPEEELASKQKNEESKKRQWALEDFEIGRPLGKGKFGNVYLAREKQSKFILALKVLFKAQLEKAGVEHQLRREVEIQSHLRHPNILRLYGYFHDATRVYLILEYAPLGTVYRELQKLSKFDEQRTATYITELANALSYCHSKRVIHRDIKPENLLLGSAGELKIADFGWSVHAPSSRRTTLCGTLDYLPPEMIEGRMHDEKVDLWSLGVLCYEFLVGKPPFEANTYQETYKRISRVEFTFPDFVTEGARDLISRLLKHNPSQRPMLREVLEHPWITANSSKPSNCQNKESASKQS
Outline: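 Radiometric assay measuring [γ-32P] transfer from 100 μM ATP to 500 μM Kemptide by 2-5 ng active human aurora-A, pH 7.5 buffer, 30 min at 30° C. Incorporated label captured on P81 filters and counted by scintillation; IC50 from curve fitting.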

[1] = test system: nuclear phospho-Histone H3 and/or MPM2 staining; assay: Cellomics Arrayscan assay for mitotic index (PH3 and MPM2 staining); assay type: cell-based; settings: for IC50: IC50 of phosphorylated Histone H3 staining normalised using MPM2 staining, read-out: MI (Cellomics) PH3/MPM2 IC50*; for MI (Cellomics) MPM2 % of Control**: cells stained with MPM2 Ab after treatment, as % of MPM2 stained cells treated with vehicle (DMSO)
Experimental: The percentage of cells with nuclear phospho-Histone H3 and/or MPM2 staining were determined in 96-well plate assays using the Cellomics Arrayscan Mitotic Index HitKit protocol (Cellomics Inc). Briefly, cells were plated at 10^4 cells per well and incubated for 16-18 h at 37° C. Compounds were added and the cells incubated for the appropriate time before a 15 min fixation in 3.7% formaldehyde in wash buffer (Cellomics Inc.). Cells were permeabilised in 0.2% Triton in wash buffer for 15 min, washed, then incubated with primary antibodies that specifically recognise mitotic epitopes; rabbit anti-phosphohistone H3 (Upstate 06570) or mouse anti-phospho-Ser/Thr-Pro MPM2 (Upstate 05-368). After a 1 h incubation cells were washed and incubated with secondary FITC-conjugated anti-mouse and/or TRITC-conjugated anti-rabbit secondary antibodies (Jackson laboratories) and Hoescht dye. After a further 1 h incubation the cells were washed, then the plate was analysed using a Cellomics Arrayscan II automated fluorescent microscopy system to detect nuclear fluorescent staining. Data for 2000 cells per well were stored and the percentage of cells expressing mitotic epitopes compared to total cells (stained with Hoescht dye) was calculated using the Cellomics mitotic index algorithm.

CDK2/E = CDK2/E (Homo sapiens, UniProt P24941); assay: In vitro kinase assay CDK2/E; assay type: biochemical; settings: in vitro kinase data
Experimental: as §2, with “Data was analysed using curve-fitting software (GraphPad Prism version 3.00 for Windows, GraphPad Software, San Diego Calif. USA) to determine IC50 values (concentration of test compound which inhibits kinase activity by 50%).” left out

Ki (human CDK7/cyclin H): 2.79 µM
IC50 (aurora-A (human)): < 0.1 µM
Compound: COc1cc(Nc2nccc(-c3c(C)c4n(c3C)CCNC4=O)n2)ccc1N1CCOCC1 [Example I-3, 7-[2-(3-Methoxy-4-morpholin-4-yl-phenylamino)-pyrmidin-4-yl]-6,8-dimethyl-3,4-dihydro-2H-pyrrolo[1,2-a]pyrazin-1-one]
IC50 (A2780): 0.75 µM
IC50 (MiaPaCa): 1.85 µM
IC50 [1]: 4.74 µM
MI (Cellomics) MPM2 % of Control** [1]: 317%

Ki (human CDK7/cyclin H): 3.41 µM
IC50 (aurora-A (human)): < 1 µM
Compound: Cc1c(-c2ccnc(Nc3ccc(N4CCOCC4)cc3)n2)c(C)n2c1C(=O)NCC2 [Example I-2, 6,8-Dimethyl-7-[2-(4-morpholin-4-yl-phenylamino)-pyrimidin-4-yl]-3,4-dihydro-2H-pyrrolo[1,2-a]pyrazin-1-one]
IC50 (A2780): 0.575 µM
IC50 (MiaPaCa): 1.8 µM
IC50 [1]: 9.2 µM
MI (Cellomics) MPM2 % of Control** [1]: 333%

Ki (human CDK7/cyclin H): 2.99 µM
Ki (CDK2/E): 1.13 µM
IC50 (aurora-A (human)): < 1 µM
Compound: Cc1c(-c2ccnc(Nc3ccc(F)cc3)n2)c(C)n2c1C(=O)NCC2 [Example I-1, 7-[2-(4-Fluoro-phenylamino)-pyrimidin-4-yl]-6,8-dimethyl-3,4-dihydro-2H-pyrrolo[1,2-a]pyrazin-1-one]
IC50 (A2780): 4.47 µM
IC50 (MiaPaCa): > 10 µM
IC50 [1]: 16.3 µM
MI (Cellomics) MPM2 % of Control** [1]: 239%

IC50 (aurora-A (human)): < 1 µM
Compound: COc1cc(C(=O)O)ccc1Nc1nccc(-c2c(C)c3n(c2C)CCNC3=O)n1 [Example I-27, 4-[4-(6,8-Dimethyl-1-oxo-1,2,3,4-tetrahydro-pyrrolo[1,2-a]pyrazin-7-yl)-pyrimidin-2-ylamino]-3-methoxy-benzoic acid]

IC50 (aurora-A (human)): < 0.1 µM
Compound: Cc1c(-c2ccnc(Nc3cccc(CCC(=O)N4CCOCC4)c3)n2)c(C)n2c1C(=O)NCC2 [Example I-108, 6,8-Dimethyl-7-{2-[3-(3-morpholin-4-yl-3-oxo-propyl)-phenylamino]-pyrimidin-4-yl}-3,4-dihydro-2H-pyrrolo[1,2-a]pyrazin-1-one]

IC50 (aurora-A (human)): < 10 µM
Compound: CCN(CC)CCCNS(=O)(=O)c1ccc(Nc2nccc(-c3c(C)c4n(c3C)CCNC4=O)n2)cc1C [Example I-21, N-(3-Diethylamino-propyl)-4-[4-(6,8-dimethyl-1-oxo-1,2,3,4-tetrahydro-pyrrolo[1,2-a]pyrazin-7-yl)-pyrimidin-2-ylamino]-2-methyl-benzenesulfonamide]

IC50 (aurora-A (human)): < 0.1 µM
Compound: COCCNC(=O)CCc1cccc(Nc2nccc(-c3c(C)c4n(c3C)CCNC4=O)n2)c1 [Example I-105, 3-{3-[4-(6,8-Dimethyl-1-oxo-1,2,3,4-tetrahydro-pyrrolo[1,2-a]pyrazin-7-yl)-pyrimidin-2-ylamino]-phenyl}-N-(2-methoxy-ethyl)-propionamide]

IC50 (aurora-A (human)): < 0.1 µM
Compound: Cc1c(-c2ccnc(Nc3ccc4c(c3)CS(=O)(=O)C4)n2)c(C)n2c1C(=O)N(C)CC2 [Example I-94, 7-[2-(2,2-Dioxo-2,3-dihydro-1H-2-benzo[c]thiophen-5-ylamino)-pyrimidin-4-yl]-2,6,8-trimethyl-3,4-dihydro-2H-pyrrolo[1,2-a]pyrazin-1-one]

IC50 (aurora-A (human)): < 1 µM
Compound: Cc1c(-c2ccnc(Nc3ccc(CC(=O)N(C)CCCN(C)C)cc3)n2)c(C)n2c1C(=O)NCC2 [Example I-98, N-(3-Dimethylamino-propyl)-2-{4-[4-(6,8-dimethyl-1-oxo-1,2,3,4-tetrahydro-pyrrolo[1,2-a]pyrazin-7-yl)-pyrimidin-2-ylamino]-phenyl}-N-methyl-acetamide]

IC50 (aurora-A (human)): < 0.1 µM
Compound: COc1ccc(Nc2nccc(-c3c(C)c4n(c3C)CCNC4=O)n2)cc1Cl [Example I-67, 7-[2-(3-Chloro-4-methoxy-phenylamino)-pyrimidin-4-yl]-6,8-dimethyl-3,4-dihydro-2H-pyrrolo[1,2-a]pyrazin-1-one]

IC50 (aurora-A (human)): < 1 µM
Compound: Cc1c(-c2ccnc(Nc3ccc(C(C)C(=O)O)cc3)n2)c(C)n2c1C(=O)NCC2 (stereo not shown) [Example I-40, 2-{4-[4-(6,8-Dimethyl-1-oxo-1,2,3,4-tetrahydro-pyrrolo[1,2-a]pyrazin-7-yl)-pyrimidin-2-ylamino]-phenyl}-propionic acid]

IC50 (aurora-A (human)): < 1 µM
Compound: COc1ccc(Nc2nccc(-c3c(C)c4n(c3C)CCNC4=O)n2)cc1O [Example I-28, 7-[2-(3-Hydroxy-4-methoxy-phenylamino)-pyrimidin-4-yl]-6,8-dimethyl-3,4-dihydro-2H-pyrrolo[1,2-a]pyrazin-1-one]
